Results as given in patent publication US12378206B2, “Heteroaryl butanoic acid derivatives” (NOVARTIS AG, priority 2013, dated 2025).
Read-outs that look alike come from different tables or passages of the source.

Legend:
[1] = tested on: LTB4 biosynthesis in human whole blood; assay: Human whole blood assay (hWB): inhibition of LTB4 biosynthesis after A23187 stimulation, ELISA; assay type: cell-based
Procedure: Compounds are tested in a human whole blood assay (hWB) to test their ability to inhibit LTB4 biosynthesis in a human cellular system. To this end, fresh blood is collected in heparinized vacutainers by venipuncture from volunteers. Blood is diluted 1:3 with RPMI (Roswell Park Memorial Institute) medium and aliquots of 200 μL are transferred to 96-well round bottom cell culture plates. For compound testing, compounds are delivered as 10 mM stock solutions in 90% DMSO in matrix tubes. […] 4 μL of compound dilution or vehicle is added to 200 μL of blood and incubated for 15 min at 37° C. in a humidified incubator. Then blood is stimulated with 10 μg/ml calcium ionophore A23187 (Sigma) or equal volume DMSO (control) and incubated for an additional 15 min at 37° C. in a humidified incubator. Incubation is terminated by centrifugation at 300 g for 10 min at 22° C. Plasma supernatant is taken and transferred to a 96 well plate for eicosanoid determination by ELISA (Assay designs) according to the manufacturer's protocol after 1:20 dilution in assay buffer. The data is analyzed in GraphPad Prism (GraphPad software Inc.) using non-linear regression to determine IC50 values of LTA4H inhibitors.

human LTA4H = molecular target: T1, human LTA4H (Homo sapiens, UniProt P09960); assay: Human LTA4H enzyme assay (Arg-AMC surrogate substrate, fluorescence); assay type: biochemical; settings: read-out: ArgAMC IC50
T1 sequence (P09960 1-611): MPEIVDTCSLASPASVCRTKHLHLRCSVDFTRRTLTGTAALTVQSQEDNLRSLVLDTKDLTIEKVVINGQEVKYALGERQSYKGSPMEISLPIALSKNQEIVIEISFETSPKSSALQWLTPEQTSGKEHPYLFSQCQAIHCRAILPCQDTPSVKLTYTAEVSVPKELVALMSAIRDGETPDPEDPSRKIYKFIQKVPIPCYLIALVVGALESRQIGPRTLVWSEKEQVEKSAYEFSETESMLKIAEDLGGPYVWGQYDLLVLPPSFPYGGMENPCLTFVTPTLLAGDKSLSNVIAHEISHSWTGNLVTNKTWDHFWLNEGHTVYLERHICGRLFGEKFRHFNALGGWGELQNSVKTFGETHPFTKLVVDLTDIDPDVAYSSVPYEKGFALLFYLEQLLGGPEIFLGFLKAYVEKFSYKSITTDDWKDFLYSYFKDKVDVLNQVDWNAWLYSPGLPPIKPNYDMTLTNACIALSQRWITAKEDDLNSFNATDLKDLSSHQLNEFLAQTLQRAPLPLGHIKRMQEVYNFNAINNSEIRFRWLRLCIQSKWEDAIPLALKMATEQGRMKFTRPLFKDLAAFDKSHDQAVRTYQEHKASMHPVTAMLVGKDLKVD
Procedure: Leukotriene A4 hydrolase (LTA4H) catalyzes the vinylogous hydrolysis of the epoxide, leukotriene A4 (LTA4) into the pro-inflammatory mediator LTB4.
For compound testing, compounds are delivered as 10 mM stock solutions in 90% DMSO (10% water) in matrix tubes. […] The enzyme compound mixture is incubated at room temperature for 15 minutes prior to the addition of 50 μL substrate solution. A final substrate concentration of 600 μM, which is around the KM value of Arg-AMC, at a final enzyme concentration of 9 nM is chosen. Upon addition of the substrate, the plate is immediately placed in a fluorescence reader and the fluorescence is measured every 10 minutes for 60 minutes using the filter setting λexcitation=380 nm and λemission=460 nm. […] Raw data is converted to rate (moles per minute) using the AMC calibration curve calculated from the AMC standards. The data is analyzed in GraphPad Prism (GraphPad software Inc.) using non-linear regression to determine IC50 values of LTA4H inhibitors.

LTB4 release = assay: Murine PD assay: ex vivo A23187-stimulated LTB4 release in blood after p.o. dosing; parameters: species or system female C57BL/6 mice; settings: Mus musculus, po, read-out: PD effect [%] inhibition of LTB4 release
Procedure: LTA4H inhibitor compounds or vehicle control (30% PEG200 (70%), 5% Glucose) is applied per os (p.o.) in a dose of 0.3 mg/kg to female C57BL/6 mice (Charles River France). Three hours after application of compound, mice are terminally bled and blood is collected in heparinized tubes. Collected blood is diluted 1:3 in RPMI medium, added in 96-well round bottom cell culture plates and incubated with 10 μg/ml calcium ionophore A23187 (Sigma) or equal volume DMSO (control) for 15 min at 37° C. in a humidified incubator. Incubation is terminated by centrifugation at 300 g for 10 min at 22° C. Plasma supernatant is taken, diluted 1:10 in assay buffer and transferred to a 96 well plate for eicosanoid determination by ELISA (Assay designs) according to the manufacturer's protocol.

[2] = human whole blood diluted 1:3, 10 μg/ml calcium ionophore A23187, LTB4 by ELISA, read-out: hWB IC50
[3] = 0.3 mg/kg p.o., female C57BL/6 mice, blood taken 3 hours after application, ex vivo A23187 stimulation, versus vehicle control
[4] = Homo sapiens, read-out: hWB IC50 (nM)

Structure (SMILES)	IC50 [1, 2] [nM]	IC50 (human LTA4H) [nM]	inhibition at 0.3 mg/kg (LTB4 release; [3]) [%]	inhibition at 0.3 mg/kg (LTB4 release; 3 h) [%]	IC50 [1, 4] [nM]
N[C@H](CC(=O)O)Cn1nnc(-c2cccc(Oc3ccc(Cl)cc3)c2)n1 [Example 5, (R)-3-amino-4-(5-(3-(4-chlorophenoxy)phenyl)-2H-tetrazol-2-yl)butanoic acid]	396	3	–	–	–
N[C@H](CC(=O)O)Cn1nnc(-c2ccc(Oc3ccc(F)c(Cl)c3)cc2)n1 [Example 8, (R)-3-amino-4-(5-(4-(3-chloro-4-fluorophenoxy)phenyl)-2H-tetrazol-2-yl)butanoic acid]	282	3	–	–	–
Cc1ccc(Oc2ccc(-c3nnn(C[C@H](N)CC(=O)O)n3)cc2)cc1 [Example 9, (R)-3-amino-4-(5-(4-(p-tolyloxy)phenyl)-2H-tetrazol-2-yl)butanoic acid]	402	≤ 2	–	–	–
N[C@@H](CC(=O)O)Cn1nnc(-c2cccc(Oc3ccccc3)c2)n1 [Example 10, (S)-3-amino-4-(5-(3-phenoxyphenyl)-2H-tetrazol-2-yl)butanoic acid]	214	4	–	–	–
N[C@H](CC(=O)O)Cn1nnc(-c2cccc(OCCc3ccccc3)c2)n1 [Example 13, (R)-3-amino-4-(5-(3-phenethoxyphenyl)-2H-tetrazol-2-yl)butanoic acid]	86	≤ 2	55	–	–
N[C@H](CC(=O)O)Cn1nnc(-c2ccc(OCc3ccccc3)cc2)n1 [Example 15, (R)-3-amino-4-(5-(4-(benzyloxy)phenyl)-2H-tetrazol-2-yl)butanoic acid]	–	≤ 2	–	49	81
N[C@H](CC(=O)O)Cn1nnc(-c2cccc(OCc3ccccc3)c2)n1 [Example 16, (R)-3-amino-4-(5-(3-(benzyloxy)phenyl)-2H-tetrazol-2-yl)butanoic acid]	–	3	–	9	165
CCCCOc1ccc(-c2nnn(C[C@H](N)CC(=O)O)n2)cc1 [Example 17, (R)-3-amino-4-(5-(4-butoxyphenyl)-2H-tetrazol-2-yl)butanoic acid]	–	4	–	47	183
N[C@H](CC(=O)O)Cn1nnc(-c2cccc(Oc3ccc(C(F)(F)F)cn3)c2)n1 [Example 19, (R)-3-amino-4-(5-(3-((5-(trifluoromethyl)pyridin-2-yl)oxy)phenyl)-2H-tetrazol-2-yl)butanoic acid]	–	3	–	–	273
N[C@H](CC(=O)O)Cn1nnc(-c2ccc(Oc3ccc(C(F)(F)F)cn3)cc2)n1 [Example 20, (R)-3-amino-4-(5-(4-((5-(trifluoromethyl)pyridin-2-yl)oxy)phenyl)-2H-tetrazol-2-yl)butanoic acid]	270	5	–	–	–
N[C@H](CC(=O)O)Cn1nnc(-c2cccc(Oc3nc4ccccc4s3)c2)n1 [Example 21, (R)-3-amino-4-(5-(3-(benzo[d]thiazol-2-yloxy)phenyl)-2H-tetrazol-2-yl)butanoic acid]	209	5	–	–	–
N[C@H](CC(=O)O)Cn1nnc(-c2cccc(Oc3cc(F)cc(F)c3)c2)n1 [Example 22, (R)-3-amino-4-(5-(3-(3,5-difluorophenoxy)phenyl)-2H-tetrazol-2-yl)butanoic acid]	294	8	–	–	–
Cc1ccc(Oc2ccc(-c3nnn(C[C@@H](N)CC(=O)O)n3)cc2)cc1 [Example 23, (S)-3-amino-4-(5-(4-(p-tolyloxy)phenyl)-2H-tetrazol-2-yl)butanoic acid]	173	≤ 2	44	–	–
N[C@@H](CC(=O)O)Cc1nnc(-c2ccc(Oc3ccc(F)cc3)cc2)o1 [Example 24, (R)-3-amino-4-(5-(4-(4-fluorophenoxy)phenyl)-1,3,4-oxadiazol-2-yl)butanoic acid]	282	3	–	–	–
N[C@@H](CC(=O)O)Cc1nnc(-c2ccc(Oc3ccc(Cl)cc3)cc2)o1 [Example 25, (R)-3-amino-4-(5-(4-(4-chlorophenoxy)phenyl)-1,3,4-oxadiazol-2-yl)butanoic acid]	382	3	–	–	–
N[C@@H](CC(=O)O)Cc1nc(-c2ccc(Oc3ccc(Cl)cc3)cc2)no1 [Example 26, (R)-3-amino-4-(3-(4-(4-chlorophenoxy)phenyl)-1,2,4-oxadiazol-5-yl)butanoic acid]	126	3	–	–	–
NC(=O)C[C@H](N)Cc1nc(-c2ccc(Oc3ccc(Cl)cc3)cc2)no1 [Example 27, (R)-3-amino-4-(3-(4-(4-chlorophenoxy)phenyl)-1,2,4-oxadiazol-5-yl)butanamide]	218	10	–	–	–
N[C@@H](CC(=O)O)Cn1cc(-c2ccc(Oc3ccc(Cl)cc3)cc2)cn1 [Example 28, (S)-3-amino-4-(4-(4-(4-chlorophenoxy)phenyl)-1H-pyrazol-1-yl)butanoic acid]	728	3	–	–	–
